Measured values taken from patent publication US20250304700A1, “ANTI-BLOOD DENDRITIC CELL ANTIGEN 2 ANTIBODIES AND USES THEREOF” (Biogen MA Inc., priority 2012, published 2025).
Several values for one entry are separate records, joined by “and”; a condition that tells them apart may be missing. Equal values may be shown once.

What was measured:
human BDCA2 ectodomain = biological target: T1, human BDCA2 ectodomain (Homo sapiens, UniProt Q8WTT0); experiment: Octet binding of mAbs on anti-human Fc tips to monomeric huBDCA2
T1 construct: huBDCA2 ectodomain: residues 257-425 above (underlined); murine IgG2a Fc (with G4S linker) (N, cleaved yes); made in house
T1 sequence (Q8WTT0 45-213): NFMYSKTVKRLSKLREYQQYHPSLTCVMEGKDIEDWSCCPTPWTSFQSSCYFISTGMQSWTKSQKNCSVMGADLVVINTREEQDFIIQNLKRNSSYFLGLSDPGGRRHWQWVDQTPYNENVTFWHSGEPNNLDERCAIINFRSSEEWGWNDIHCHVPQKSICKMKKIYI
Protocol: Site-directed mutagenesis was performed using Agilent's QuikChange II mutagenesis kit following the manufacturer's recommended protocol. The C95S variant was constructed using the mutagenic primer 5′ GCAACCTATTACTGTCAACAAAGTAATGAGGATCCTCGGAC 3′ (SEQ ID NO: 38) and its reverse complement, which introduced a new HincII site, producing plasmid pEAG2678. The C95T variant was constructed using the mutagenic primer 5′ CAACCTATTACTGTCAGCAAACTAATGAAGATCCTCGGACGTTCG 3′ (SEQ ID NO: 39) and its reverse complement, which removed a BamHI site, producing plasmid pEAG2679. Mutated plasmids were identified by screening for the introduced restriction site changes. The full-length light chain cDNA sequences in the resultant plasmids were confirmed by DNA sequencing. Wildtype ch24F4 and the C95S and C95T variant mAbs were expressed transiently in 293E cells by co-transfection of pYL672 and pYL671, pEAG2678 or pEAG2679. Conditioned medium was harvested at 2 days post-transfection. Titers (assayed by Octet on anti-human Fc tips) of both variants were similar to that of wildtype ch24F4, and Western blots of nonreducing SDS-PAGE indicated no gross aggregation or obvious clipping relative to wildtype ch24F4 mAb. […] Conditioned medium containing ch24F4 and the C95 variant mAbs was assayed by Octet for binding to human BDCA2 ectodomain. Antibodies from conditioned medium from transiently transfected cells were bound to anti-human Fc tips, then monomeric huBDCA2 was flowed over the Octet tips, to examine binding and dissociation.
Conditioned medium containing ch24F4 and all hu24F4 variant mAbs was assayed by Octet for binding to human BDCA2 ectodomain. The monomeric huBDCA2 ectodomain was prepared by proteolytic cleavage from the purified muIgG2a Fc-huBDCA2 fusion protein (relevant plasmid: pEAG2423). Antibodies from conditioned medium from transiently transfected cells were bound to anti-human Fc tips, and then monomeric huBDCA2 was flowed over the Octet tips, to examine binding and dissociation.
To explore the possibility of enhancing hu24F4 affinity by substitution at the position of the 24F4 version L1 CDR L3 unpaired cysteine (C95S in hu24F4 light chain expression vector pYL740), a number of version L1 variants were constructed by site-directed mutagenesis. Backmutation to the unpaired cysteine, i.e., S95C, was constructed by site-directed mutagenesis producing plasmid pYL749. Variants S95T, S95A, and S95V were constructed by site-directed mutagenesis producing plasmids pYL750, pYL751, and pYL752, respectively. The full-length light chain cDNA sequences in the resultant plasmids were confirmed by DNA sequencing. C95 variant hu24F4 mAbs were expressed transiently in 293E cells by co-transfection of hu24F4 H4 heavy chain pYL746 or hu24F4 H5 heavy chain pYL747 with hu24F4 L1 variant light chains C95S pYL740, S95C pYL749, S95T pYL750, S95A pYL751 or S95V pYL752 plasmids. Conditioned medium was harvested at 2 days post-transfection. Titers (assayed by Octet on anti-human Fc tips) of all variants were similar, and Western blots of nonreducing SDS-PAGE indicated no gross aggregation or obvious clipping. Conditioned medium containing the C95 variant mAbs was assayed by Octet for binding to human BDCA2 ectodomain. Antibodies from conditioned medium from transiently transfected cells were bound to anti-human Fc tips, then monomeric huBDCA2 was flowed over the Octet tips, to examine binding and dissociation. C95A variants had the slowest off-rates.

[1] = system: TLR9-induced IFNα production in whole blood; experiment: Whole blood assay, TLR9-induced IFNα production; format: cell-based, human; details: CpG-A stimulated whole blood
Protocol: Whole blood was drawn from heparinized venous blood of healthy donors. […] CpG-A was added at 200 μg/mL, which was determined to be optimal for stimulation of IFNα production in whole blood. Plates were incubated for 18 hours at 37° C. and supernatants collected for use in IFNα ELISA assays (PBL InterferonSource). The assays were performed according to the manufacturer's protocol. Shown in FIG. 15A is a representative experiment of 6 independent experiments performed.
Specifically, whole blood from 2 SLE patients or 2 healthy donors was provided by Bioreclamation LLC by overnight shipping. […] Plates were incubated for 18 hours at 37° C. and supernatants collected for use in IFNα ELISA assays (PBL InterferonSource). The assays were performed according to the manufacturer's protocol.
CpG-A was added at 75 μg/mL (open square), which was determined to be optimal for stimulation of IFNα production in whole blood. Plates were incubated for 18 hours at 37° C. and supernatants collected for use in IFNα ELISA assays (PBL InterferonSource).
The whole blood was then collected, lysed, and BDCA2 expression was assessed by flow cytometry using the FITC-conjugated non-cross blocking antibody 2D6. […] The supernatants were harvested and evaluated for IFNα by ELISA.

[2] = system: TLR3-induced IFNα production by PBMC; experiment: TLR3-induced IFNα production by PBMC; format: cell-based, human; details: 1 μM Poly I:C, BIIB059 10 μg/mL to 0.5 ng/ml
Protocol: This experiment was performed to determine whether other cell types triggered with different TLR ligands are still able to produce type I IFN even in the presence of BIIB059. […] PBMC from human healthy donors were stimulated with poly: IC, which is a TLR3 ligand that can potently induce type I IFN predominantly by monocytes. […] The plates were incubated overnight (18 hours) at 37° C. and 5% CO2. 200 μL of the supernatants were collected for evaluation of IFNα levels by ELISA.

BDCA2 receptor on pDCs = experiment: BDCA2 and bound BIIB059 on pDC surface after dosing cynomolgus monkeys; format: in vivo, cynomolgus monkey
Excerpt: At the same time point (1 hr), some free BDCA2 was observed (13%, 74%, 72% of baseline MFI).
EC10-50-90 curves were generated in GraphPad Prism software using a four-parameter fit.

[3] = Example 5, conditioned medium, hu24F4 variants
[4] = Example 6, conditioned medium, L1 position 95 variants

Chain of BDCA2 receptor on pDCs (as listed by the source): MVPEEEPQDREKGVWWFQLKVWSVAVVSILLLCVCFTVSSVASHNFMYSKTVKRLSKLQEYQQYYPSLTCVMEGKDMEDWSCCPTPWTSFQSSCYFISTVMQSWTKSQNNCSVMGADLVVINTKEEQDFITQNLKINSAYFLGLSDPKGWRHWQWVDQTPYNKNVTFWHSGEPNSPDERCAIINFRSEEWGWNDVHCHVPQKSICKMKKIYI

## 24F4S: hu24F4 H4/L1 with C95S light chain; differs from BIIB059 by 1 amino acid residue
Human BDCA2 ectodomain; [3]
  kdis: 0.000408 s⁻¹
  kon: 549000 M⁻¹ s⁻¹
Human BDCA2 ectodomain; [4]
  kdis: 0.000398 s⁻¹
  kon: 727000 M⁻¹ s⁻¹

## BIIB059: humanized IgG1 anti-BDCA2 antibody, mature heavy chain SEQ ID NO: 4 and mature light chain SEQ ID NO: 3
[1]
  other cytokines and chemokines in whole blood: inhibition of a large array of cytokines and chemokines
[2]
  TLR3-induced IFNα production: did not impact
BDCA2 receptor on pDCs; IV 10 mg/kg or 1 mg/kg, from 1 hour post injection
  BIIB059 on the pDC surface: no BIIB059 was detected on the surface
BDCA2 receptor on pDCs; IV 10 mg/kg or 1 mg/kg, through 38 days, except monkey 5
  free BDCA2 (BIIB059-A647 staining): no free BDCA2
BDCA2 receptor on pDCs; IV 10 mg/kg, monkeys 3, 8, 10, 10 mg/kg
  EC10 (ug/mL), internalization of BDCA2: 0.100 µg/mL and 0.095 µg/mL and 0.114 µg/mL
BDCA2 receptor on pDCs; SC 0.2 mg/kg
  free BDCA2 receptor over time: no free BDCA2 receptor was detected until day 14
BDCA2 receptor on pDCs; SC 0.2 mg/kg, at 1 hour, disappeared by 6 hours
  BIIB059 on the pDC surface: briefly observed on the surface of pDCs
BDCA2 receptor on pDCs; mean of all dosed monkeys
  EC10 (ug/mL), Mean: 0.064 µg/mL
  EC90 (ug/mL), Mean: 0.359 µg/mL
